Measurements as given in patent EP0626016B1, “[…] […]” (BRITISH TECHNOLOGY GROUP LIMITED, priority 1992, dated 1993).
Where two headings read alike, the source gives them in different places.

Molecular target: T1, HRP Type VIA (Armoracia rusticana, UniProt P00433)
T1 sequence (P00433 31-338): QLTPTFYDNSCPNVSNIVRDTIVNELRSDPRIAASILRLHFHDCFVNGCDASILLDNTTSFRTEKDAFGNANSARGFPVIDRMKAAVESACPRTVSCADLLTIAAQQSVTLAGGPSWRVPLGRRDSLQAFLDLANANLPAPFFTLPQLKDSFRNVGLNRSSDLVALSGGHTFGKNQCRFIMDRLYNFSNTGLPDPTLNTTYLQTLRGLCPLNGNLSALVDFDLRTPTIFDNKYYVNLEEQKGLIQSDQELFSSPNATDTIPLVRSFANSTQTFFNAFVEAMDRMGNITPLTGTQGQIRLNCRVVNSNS
Conditions: for (d) Signal: Background: ratio (control = with no enhancer): control value in brackets not reported

| (a) Decrease in background (without HRP with test cpd.) (0.01 mg/ml, 10µl test compound) | (b) Increase in signal (with HRP, with test cpd.) (0.01 mg/ml, 10µl test compound) | (c) Increase in signal: background ratio (0.01 mg/ml, 10µl test compound) | (d) Signal: Background: ratio (control = with no enhancer) (0.01 mg/ml, 10µl test compound) | (a) Decrease in background (without HRP with test cpd.) (0.1 mg/ml, 10µl test compound) | (b) Increase in signal (with HRP, with test cpd.) (0.1 mg/ml, 10µl test compound) | (d) Signal: Background: ratio (control = with no enhancer) (0.1 mg/ml, 10µl test compound) | (a) Decrease in background (without HRP with test cpd.) (1 mg/ml, 10µl test compound) | (b) Increase in signal (with HRP, with test cpd.) (1 mg/ml, 10µl test compound) | (c) Increase in signal: background ratio (1 mg/ml, 10µl test compound) | (d) Signal: Background: ratio (control = with no enhancer) (1 mg/ml, 10µl test compound) | Substance | (a) Decrease in background (without HRP with test cpd.) | (b) Increase in signal (with HRP, with test cpd.) | (c) Increase in signal: background ratio (0.1 mg/ml, 10µl test compound) |
| --- | --- | --- | --- | --- | --- | --- | --- | --- | --- | --- | --- | --- | --- | --- |
| – | – | – | – | – | – | – | – | – | – | – | bis(catechol)borate [Compound 1013] | Y | N | – |
| Y | N | N (N = no) | 2.3 | Y | N | 1.6 | Y | N | N (N = no) | 1.8 (2.5) | boraxarophenanthrene [Compound 1014] | – | – | N (N = no) |
| Y | N | N (N = no) | – | Y | N | – | Y | N | N (N = no) | – | methyl-(2-tolylboronic acid)sulfoxide [Compound 1051] | – | – | N (N = no) |

| Substance | (a) Decrease in background (without HRP with test cpd.) (0.01 mg/ml, 10µl test compound) | (b) Increase in signal (with HRP, with test cpd.) (0.01 mg/ml, 10µl test compound) | (c) Increase in signal: background ratio (0.01 mg/ml, 10µl test compound) | (d) Signal: Background: ratio (control = with no enhancer) (0.01 mg/ml, 10µl test compound) | (a) Decrease in background (without HRP with test cpd.) (0.1 mg/ml, 10µl test compound) | (b) Increase in signal (with HRP, with test cpd.) (0.1 mg/ml, 10µl test compound) | (d) Signal: Background: ratio (control = with no enhancer) (0.1 mg/ml, 10µl test compound) | (a) Decrease in background (without HRP with test cpd.) (1 mg/ml, 10µl test compound) | (b) Increase in signal (with HRP, with test cpd.) (1 mg/ml, 10µl test compound) | (c) Increase in signal: background ratio (1 mg/ml, 10µl test compound) | (d) Signal: Background: ratio (control = with no enhancer) (1 mg/ml, 10µl test compound) | (a) Decrease in background (without HRP with test cpd.) | (b) Increase in signal (with HRP, with test cpd.) | (c) Increase in signal: background ratio (0.1 mg/ml, 10µl test compound) |
| --- | --- | --- | --- | --- | --- | --- | --- | --- | --- | --- | --- | --- | --- | --- |
| boroglycine [Compound 1015] | Y | Y | N (N = no) | 2.3 | Y | Y | 2.9 | Y | N | Y (Column (c) shows whether there was an increase in the signal:background ratio by over 25% of the control value (Y = yes) | 3.1 (2.1) | – | – | Y (Column (c) shows whether there was an increase in the signal:background ratio by over 25% of the control value (Y = yes) |
| dimethylphenylboronic acid [Compound 1036] | Y | N | Y (Column (c) shows whether there was an increase in the signal:background ratio by over 25% of the control value (Y = yes) | 2.6 (2.0) | Y | N | 7.6 (2.9) | Y | N | N (N = no) | – | – | – | Y (Column (c) shows whether there was an increase in the signal:background ratio by over 25% of the control value (Y = yes) |
| diphenylboronic anhydride [Compound 1048] | Y | Y | Y (Column (c) shows whether there was an increase in the signal:background ratio by over 25% of the control value (Y = yes) | 3.1 (1.8) | Y | Y | 139.0 (2.7) | Y | N | Y (Column (c) shows whether there was an increase in the signal:background ratio by over 25% of the control value (Y = yes) | 100.0 (4.5) | – | – | Y (Column (c) shows whether there was an increase in the signal:background ratio by over 25% of the control value (Y = yes) |
